Data as given in publication PMC12562781 (International Journal of Molecular Sciences, 2025).
In brackets after ≈: the same amount, converted by molar mass. Where two headings read alike, the source gives them in different places.

How the values were obtained:
[1] = system: human prostate cancer cell lines (PC3); test: MTT cytotoxicity assay, PC3 cells
Description: (§1) The cells were allowed to grow to 90% confluency in an incubator set at 37 °C containing 5% CO2, before they were trypsinized and cultured in 96-well tissue culture plates. Stock and final concentrations of the compounds were prepared in the culture media.
(§2) Just 5 h before the elapse of 24 h, 10 µL of 5 mg/mL MTT solution was added to each well, and the plates were further incubated. At the end of the incubation period, the media was removed from each well and replaced with 50 µL of DMSO. The plates were shaken on a rotating shaker for 10 min before taking readings at 560 nm using a microplate reader (Elisa Plate Reader, BioTek Instruments, Inc., Winooski, VT, USA). […] IC50 values were calculated from the graphs as compound concentrations that reduced the absorbance at 560 nm by 50% of the untreated control wells. To exclude background readings, three wells were seeded with untreated cells in which MTT was not added. Assays were performed in triplicate to ensure reproducibility. The percentage inhibitions of cell proliferation were calculated using the following formula:% Cytotoxicity = ((A − B)/A) × 100 where: A is the absorbance of the negative control (untreated cells). B is the absorbance of the treated cells.
Data were presented as the cumulative mean of each compound. Each compound was run in triplicate. GraphPad Prism (version 5) was used for statistical analysis of all data. […]

[2] = system: human liver cancer cell lines (HepG2); test: MTT cytotoxicity assay, HepG2 cells; details: HepG2, 24 h, read-out: IC50 Values, cytotoxicity, HepG2
Description: as §1, §2
(§3) Data were presented as the cumulative mean of each compound. Each compound was run in triplicate. GraphPad Prism (version 5) was used for statistical analysis of all data. For all the data, one-way analysis of variance (ANOVA) followed by Bonferroni’s multiple comparison tests was used to compare the means of one group with every other group. Statistical significance was set at 5%; thus, a p-value ≤ 0.05 was considered significant. Concentrations that inhibit cell proliferation by 50% (IC50) were calculated using Graphpad Prism 5 software.

HeLa cells = system: HeLa cells; set-up: method as in PMID 24658565; details: read-out: cytotoxic IC50, HeLa; cited from earlier work
HT-29 cells = system: HT-29 cells; set-up: method as in PMID 24658565; details: read-out: cytotoxic IC50, HT-29; cited from earlier work
[3] = system: breast adenocarcinoma cancer cell lines (MDA); test: MTT cytotoxicity assay, MDA cells; details: Homo sapiens, 24 h, read-out: IC50 Values, cytotoxicity, MDA
Description: as §1, §2, §3

MCF-7 cells = system: MCF-7 cells; set-up: method as in PMID 24658565; details: read-out: cytotoxic IC50, MCF-7; cited from earlier work
MDA-MB-231 = details: cited from earlier work
Plasmodium = system: Plasmodium; set-up: method as in PMID 24108397; details: cited from earlier work
[4] = system: non-cancerous human fibroblast cell lines (KMST-6); test: MTT cytotoxicity assay, KMST-6 cells; format: cell-based; details: MTT, 24 h, 0.156 µM to 10 µM, triplicate; non-cancerous cells
Description: (§4) Assays were performed in triplicate to ensure reproducibility. […] B is the absorbance of the treated cells.
(§5) Each compound was run in triplicate.

[5] = system: human breast cancer cells (MDA-MB-231); set-up: method as in PMID 28231262; details: cited from earlier work
[6] = MTT cytotoxicity assay, KMST-6 cells; format: cell-based, human; details: human
Description: as §4, §5

Plasmodium berghei = system: Plasmodium berghei; set-up: method as in PMID 24108397; details: mice; cited from earlier work
HepG2 = system: HepG2; set-up: method as in PMID 24108397; details: cited from earlier work
Hep-G2 = details: cited from earlier work
HEK293 = system: HEK293; set-up: method as in PMID 24108397; details: cited from earlier work
[7] = system: Vero cells and human liver cancer cells; set-up: method as in earlier work; details: cited from earlier work
Funtumia africana = system: Funtumia africana; set-up: method as in earlier work; details: cited from earlier work
HL60 cells = system: HL60 cells; set-up: method as in doi:10.1007/s00044-014-1093-y; details: cited from earlier work

C[C@H]1[C@H](C)CC[C@]2(C(=O)O)CC[C@]3(C)C(=CC[C@@H]4[C@@]5(C)CC[C@H](O)C(C)(C)[C@@H]5CC[C@]43C)[C@H]12 [Compound 1, ursolic acid]
IC50 ([1]; read-out: IC50 Values, cytotoxicity, PC3, MTT, 24 h, 0.156 µM to 10 µM, triplicate): 0.262 µM
IC50 [2]: 0.261 µM
IC50 (HeLa cells): 10 µM
IC50 (HT-29 cells): 10 µM
IC50 [3]: > 5 µM
IC50 (MCF-7 cells): 20 µM
concentration that inhibits cell proliferation (MDA-MB-231): ≥ 160 µg/mL
anti-plasmodial IC50 (Plasmodium): 6.8 µg/mL
IC50 Values, cytotoxicity, KMST-6 [4]: ns

COC1CCC2(C)C3CCC4(C)C(=CCC5(C)CCC(C)(C)CC54)C3(C)CCC2C1(C)C (centres unmarked) [sawamilletin]
anti-plasmodial IC50 (Plasmodium; unit not given): > 100

CC1(C)CC[C@]2(C(=O)O)CC[C@]3(C)C(=CC[C@@H]4[C@@]5(C)CC[C@H](O)C(C)(C)[C@@H]5CC[C@]43C)[C@@H]2C1 [Compound 2, oleanolic acid]
IC50 [2]: 1.2 µM
IC50 [3]: 4.48 µM
effect on cell migration [5]: clearly enhanced cell migration
IC50 at 24 h ([6]; KMST-6 non-cancerous fibroblast cells, MTT, 24 h, 0.156 µM to 10 µM, triplicate, non-cancerous cells, read-out: IC50 Values, cytotoxicity, KMST-6): 3.88 µM

CC1(C)CC[C@]2(C)CC=C3[C@]4(C)CC[C@H]5C(C)(C)[C@@H](O)CC[C@]5(C)[C@H]4CC[C@@]3(C)[C@@H]2C1 [taraxerol]
anti-plasmodial IC50 (Plasmodium; unit not given): > 100

CC(=O)O[C@H]1CC[C@]2(C)[C@H]3CC=C4[C@@H]5[C@@H](C)[C@H](C)CC[C@]5(C(=O)O)CC[C@@]4(C)[C@]3(C)CC[C@H]2C1(C)C [Compound 3, 3-O-acetyl ursolic acid]
decrease of parasitemia (Plasmodium berghei): 94.01%
IC50 Values, cytotoxicity, PC3 [1]: ns
IC50 [2]: 0.85 µM
IC50 [3]: 3.93 µM
cytotoxicity IC50, HepG2 (HepG2): 566.09 µg/mL
cytotoxicity IC50, Hep-G2 (Hep-G2): 4.73 µg/mL
IC50 at 24 h [6]: 4.88 µM
cytotoxicity IC50, HEK293 (HEK293): 366.00 µg/mL

COC(=O)[C@]12CC[C@@H](C)[C@H](C)C1C1=CCC3[C@@]4(C)CC[C@H](OC(C)=O)C(C)(C)C4CC[C@@]3(C)[C@]1(C)CC2 (some centres unmarked) [Compound 5, 3-acetylursolic-methylate]
IC50 [2]: 0.85 µM
IC50 [3]: 1.9 µM
IC50 at 24 h [6]: > 5 µM

COC(=O)[C@]12CC[C@@H](C)[C@H](C)[C@H]1C1=CC[C@@H]3[C@@]4(C)CC[C@H](O)C(C)(C)[C@@H]4CC[C@@]3(C)[C@]1(C)CC2 [Compound 4, ursolic-28-methylate]
cytotoxicity IC50 [7]: 10.4 µg/mL
IC50 [2]: 1.6 µM
IC50 [3]: 2.48 µM
MIC (Funtumia africana): 62.5 µg/mL (≈ 133 µM)
ED50, HL60 (HL60 cells): 22.7 µg/mL (≈ 48.2 µM)
IC50 at 24 h [6]: > 5 µM
